Reference: US11166924B2, “N-methyl-d-aspartate receptor allosteric modulators and methods for their use” (Qingdao Primedicine Pharmaceutical Company, Ltd., priority 2016, dated 2021)

Tests used:
[1] = system: AMPAR; assay: AMPA-induced currents in cultured hippocampal neurons; type: cell-based
Method: Whole cell patch-clamp recordings were performed under voltage-clamp mode using an Axopatch 200B or 1D patch-clamp amplifier (Molecular Devices). Whole-cell currents were recorded at a holding potential of −60 mV unless indicated elsewhere, and signals were filtered at 2 kHz, digitized at 10 kHz (Digidata 1322A). Recording pipettes (3-5 MΩ) were filled with the intracellular solution that contained (mM): CsCl 140, HEPES 10, Mg-ATP 4, QX-314 5, pH 7.20; osmolarity, 290-295 mOsm. BAPTA (10 mM) was added in the intracellular solution (otherwise specified). The coverslips were continuously superfused with the extracellular solution containing (mM): NaCl 140, KCl 5.4, HEPES 10, CaCl2 1.3, glucose 20, pH 7.4; osmolarity, 305-315 mOsm. NMDA, GABA or AMPA induced currents were either applied by NMDA, GABA, AMPA either through perfusion fast-step (Warner Instruments). […]
Next, the inventor evaluated the selectivity profile for Npam02 on two other key ionotropic receptors of the central nervous system (CNS): α-amino-3-hydroxy-5-methyl-4-isoxazolepropionic acid receptor AMPAR, which are known to be a non-NMDA type ionotropic transmembrane receptor for glutamate that mediates fast synaptic transmission in the central nervous system (CNS) and GABA receptors which are the principal inhibitory ligand-gated ion channel receptor. […]

[2] = system: GluN2A NMDARs; assay: NMDAR EPSC in brain slices of wild-type and GluN2A knockout mice; design: species or system mouse; details: FIG. 20
Method: Male and female wild-type or GluN2A KO mice 20-25-day old were anesthetized using Isoflurane and rapidly decapitated. Brains were removed and immersed for 30 sec in cold (2-4° C.) cutting solution containing: 92 mM NMDG, 2.5 mM KCl, 1.25 mM NaH2PO4, 30 mM NaHCO3, 20 mM HEPES, 4.5 mM D-glucose, 5 mM Na-ascorbate, 3 mM Na-pyruvate, 0.5 mM CaCl2, and 10 mM MgCl2. The brain was blocked in melted 3% agar-A (CAS #9002-18-0, Bio Basic Canada Inc.), then glued onto the slicing platform and sectioned coronally at 320 μm thickness with a vibratome (Leica VT 1000S) containing cold (2-4° C.) bubbled (95% O2/5% CO2) cutting solution. Sections that included the prefrontal cortex were transferred into continuously carbogenated pre-warmed (32-34° C.) cutting solution for a period of 12 min time for initial recovery. […]
A brain slice was transferred onto a recording chamber on an upright Nikon FN1 microscope and the chamber was continuously perfused with 32° C. carbogenated aCSF recording solution containing: 121.85 mM NaCl, 2.5 mM KCl, 1.2 mM NaH2PO4, 24 mM NaHCO3, 12.5 mM D-glucose, 5 mM Na-ascorbate, 3 mM Na-pyruvate, 2 mM CaCl2, 0.1 mM MgCl2. Pyramidal neurons were identified in layer V of the prefrontal cortex via video monitored infra-red differential interference contrast illumination microscopy using a CFI APO 40× W NIR objective (0.80 numerical aperture, 3.5 mm working distance). […]

SMILES	Effect on AMPAR mediated currents [1]	Effect on NMDAR EPSC, GluN2A KO mice ([2]; brain slices of GluN2A KO mice)	Effect on NMDAR EPSC, WT mice ([2]; brain slices of wild-type mice)
COc1cccc(/C=N/NC(=O)c2ccccc2C)c1O [Npam02, (E)-N′-(2-hydroxy-3-methoxybenzylidene)-2-methylbenzohydrazide]	no observable effects	–	–
CCOc1cc(Cl)c(Cl)c(/C=N/NC(=O)c2ccccc2Br)c1O [Npam43, (E)-2-bromo-N′-(2,3-dichloro-5-ethoxy-6-hydroxybenzylidene)benzohydrazide]	–	no effect	clear potentiation of NMDAR EPSC
